From ChEMBL document CHEMBL1155248, “Structure-based shape pharmacophore modeling for the discovery of novel anesthetic compounds” (Bioorg Med Chem, 2009)

Tests used:
[1] = Binding affinity to apoferritin by isothermal titration calorimetry
[2] = Agonist activity at GABAA assessed as enhancement of channel current; type: functional

Row | SMILES | pEC50 [1] | Kd [2] [nM]
1 | CCc1cccc(CC)c1N=C=S | 4.8 | 
2 | CCc1cccc(CC)c1N=C=O | 4.6 | 
3 | CC(C)c1cc(O)c(O)c(C(C)C)c1 | 4.4 | 
4 | CCc1cccc(CC)c1Br | 4.7 | 
5 | CCC(C)c1ccc(O)c(C(C)CC)c1 (centres undefined) | 4.5 | 
6 | Cc1cccc(C(C)(C)C)c1O | 6.3 | 
7 | CCc1cccc(CC)c1O | 4.9 | 310
8 | CC(C)c1ccccc1O | 4.4 | 500
9 | Cc1cccc(C)c1O | 3.9 | 360
10 | CC(C)(C)c1cc(O)cc(C(C)(C)C)c1 | 4 | 
11 | CCC(C)c1cccc(C(C)CC)c1O (centres undefined) | 5.6 | 
12 | CC(C)c1cc(I)cc(C(C)C)c1O | 5 | 
13 | Oc1ccccc1 [PHENOL] | 3 | 3800
14 | CC(C)c1cccc(C(C)C)c1O [PROPOFOL] | 5.7 | 230
